Measurements as given in US20110190247A1, “CYCLOPROPYLCHROMENE DERIVATIVES AS MODULATORS OF THE ALPHA-2C RECEPTOR” (Schering Corporation, priority 2008, published 2011).
pKi: −log10 of the molar value.

Tests used:
α2C receptor [1] = target: T1, α2C receptor (Homo sapiens, UniProt P18825); test: GTPγS assay, efficacy agonist activity (Emax) at α2C; format: biochemical; conditions: for evaluated as agonist of the α2C receptor subtype: by definition: efficacy at α2C 30% Emax (GTPγS assay), functionally selective if efficacy at α2A ≦35% Emax; for evaluated as antagonist of the α2C receptor subtype: by definition: efficacy at α2C <30% Emax (GTPγS assay) and Ki <500 nM
T1 sequence (P18825 1-462): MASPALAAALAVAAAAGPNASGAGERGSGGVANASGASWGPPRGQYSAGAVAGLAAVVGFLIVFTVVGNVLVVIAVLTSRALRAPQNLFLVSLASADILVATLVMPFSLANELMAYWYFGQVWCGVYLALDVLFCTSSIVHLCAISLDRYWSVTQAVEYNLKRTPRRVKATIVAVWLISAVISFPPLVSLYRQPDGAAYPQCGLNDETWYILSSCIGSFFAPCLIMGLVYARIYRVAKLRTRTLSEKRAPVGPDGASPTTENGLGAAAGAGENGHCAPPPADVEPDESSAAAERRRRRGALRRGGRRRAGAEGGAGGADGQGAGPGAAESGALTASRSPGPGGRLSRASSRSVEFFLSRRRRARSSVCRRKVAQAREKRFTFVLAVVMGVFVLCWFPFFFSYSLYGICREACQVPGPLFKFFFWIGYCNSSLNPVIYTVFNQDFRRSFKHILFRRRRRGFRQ
Description: Efficacy agonist activity values (Emax, GTPγS assay) for α2A and α2C were determined by following the general procedure detailed by Umland et. al (“Receptor reserve analysis of the human α2c-adrenoceptor using [^35S]GTPγS and cAMP functional assays” European Journal of Pharmacology 2001, 411, 211-221). For the purposes of the present invention, a compound is defined to be a specific or at least functionally selective agonist of the α2C receptor subtype if the compound's efficacy at the α2C receptor is […] (GTPγS assay) and its efficacy at the α2A receptor is ≦35% Emax (GTPγS assay). Additionally, for the purposes of this invention, a compound is defined to be an antagonist of the α2C receptor subtype if the compound's efficacy at the α2C receptor is <30% Emax (GTPγS assay) and the Ki at the α2C receptor subtype was <500 nM, preferentially <200 nM, and most preferentially <20 nM.

α2C receptor [2] = target: T1, α2C receptor; test: binding inhibition at the α2C receptor (Ki); conditions: compounds classed as α2C antagonists; read-out: Ki at the α2C receptor subtype

| Compound | evaluated as agonist of the α2C receptor subtype (α2C receptor [1]) | evaluated as antagonist of the α2C receptor subtype (α2C receptor [1]) | pKi (α2C receptor [2]) |
| --- | --- | --- | --- |
| Cn1nccc1-c1ccc2c(c1)[C@@H]1[C@H](CO2)[C@H]1c1c[nH]cn1 (racemic) [(±)-2A] | active or functionally selective agonists | – | – |
| Cc1n[nH]c(C)c1-c1ccc2c(c1)[C@@H]1[C@H](CO2)[C@H]1c1c[nH]cn1 (racemic) [(±)-2C] | active or functionally selective agonists | – | – |
| c1ncc(-c2ccc3c(c2)[C@@H]2[C@H](CO3)[C@H]2c2c[nH]cn2)cn1 (racemic) [(±)-2] | – | antagonist | > 6.70 |
| Cc1noc(C)c1-c1ccc2c(c1)[C@@H]1[C@H](CO2)[C@H]1c1c[nH]cn1 (racemic) [(±)-2d] | – | antagonist | > 6.70 |
| c1nc([C@@H]2[C@H]3COc4ccc(-c5cn[nH]c5)cc4[C@H]32)c[nH]1 (racemic) [(±)-2e] | – | antagonist | > 6.70 |
| Cc1nn(C)c(C)c1-c1ccc2c(c1)[C@@H]1[C@H](CO2)[C@H]1c1c[nH]cn1 (racemic) [(±)-2f] | – | antagonist | > 6.70 |
| CCN(C(=O)NC)c1ccc2c(c1)[C@@H]1[C@H](CO2)[C@H]1c1c[nH]cn1 (racemic) [(±)-3] | active or functionally selective agonists | – | – |
| CCN(C(=O)OC)c1ccc2c(c1)[C@@H]1[C@H](CO2)[C@H]1c1c[nH]cn1 (racemic) [(±)-4] | active or functionally selective agonists | – | – |
| COCC(=O)N(C)c1ccc2c(c1)[C@@H]1[C@H](CO2)[C@H]1c1c[nH]cn1 (racemic) [(±)-5] | active or functionally selective agonists | – | – |
| CNc1ncncc1-c1ccc2c(c1)[C@@H]1[C@H](CO2)[C@H]1c1c[nH]cn1 (racemic) [(±)-7] | – | antagonist | > 6.70 |
| CNc1ncnc(C)c1-c1ccc2c(c1)[C@@H]1[C@H](CO2)[C@H]1c1c[nH]cn1 (racemic) [(±)-8] | active or functionally selective agonists | – | – |
| CCN(C(=O)COC)c1ccc2c(c1)[C@@H]1[C@H](CO2)[C@H]1c1c[nH]cn1 (racemic) [(±)-100] | – | antagonist | > 6.70 |
| CNC(=O)N(C)c1ccc2c(c1)[C@@H]1[C@H](CO2)[C@H]1c1c[nH]cn1 (racemic) [(±)-101] | active or functionally selective agonists | – | – |
| COC(=O)N(C)c1ccc2c(c1)[C@@H]1[C@H](CO2)[C@H]1c1c[nH]cn1 (racemic) [(±)-102] | active or functionally selective agonists | – | – |
